What was measured:
senescent cells = assay: Efferocytosis of apoptotic Jurkat cells by macrophages after co-culture with senescent cells; format: cell-based, mouse; settings: pretreatment, 4 days, Fig. S7
Protocol: Apoptotic corpse generation. Jurkat cells were cultured in a T25 flask and apoptotic corpses were inducted by exposure to 5 μM camptothecin (Tsbiochem, CAT. # t2764) for 4 hours. Apoptosis induction was confirmed by apoptoic kit (Beyotime Biotechnology, Cat. # C1062M) through flow cytometry.
Senescence induction. B16F10 Cells were plated (96-well plate: 2000 cells/well) and rested over night before exposure to 10 μM cisplatin (APExBIO, Cat. # A8321). Cisplatin exposed cells were subsequently cultured for 4 or 7 days (without media change) and senescent cells were evaluated by β-Galactosidase staining using a SA-β-Gal staining Kit (Solarbio, Cat. # G1580-100T) according to the manufacturer’s instructions. Senescent cells were identified as blue stained cells under light microscopy.
Efferocytosis after co-culture. Senescent cells were plated in 96-well plates (2000 cells/well) and inducted as described before. QPCTL inhibitors were added every other day to the cells. For co-culture conditions BMDMs were added to the senescent cells. Senescent cells and macrophages were co-cultured for 16 hours. […] Following removal of unbound corpses by washing three times with PBS, macrophages were marked with APC-labeled anti-F4/80, and the co-culture was analyzed by flow cytometry. Efferocytosis was calculated as the percentage of CFSE^+F4/80^+ cells among F4/80^+ cells.

Raji cells = assay: In vitro phagocytosis of Raji cells by mouse macrophages; format: cell-based, human
Protocol: Eight-week-old C57BL/6 wild-type mice were obtained from Shanghai Slaccas Laboratory Animal Co., Ltd.. To obtain bone marrow derived macrophage (BMDM), femora and tibiae were flushed with ice-cold PBS, and erythrocytes were lysed with RBC lysis buffer. Then bone marrow cells were cultured in DMEM medium with 10 % FBS and 100 U/ mL penicillin, and 100 μg/ mL streptomycin in the presence of 50 ng/ mL mouse M-CSF (Macrophage-Colony Stimulating Factor) (PeproTech), 0.1 mM Sodium pyruvate (Gibco, Cat. # 11360-70) and 10 mM HEPES (Gibco, Cat. # 15630-080) for 7 days.
Phagocytosis assay were conducted as previously described. Briefly, macrophages were plated 1 x 10^5 cells per well in a 48-well plate in complete DMEM medium, supplemented with M-CSF overnight before the experiment. Cancer cells were stained with 5 μM CFSE at 37 °C for 10 min. Each phagocytotic reaction reported in this work was performed by co-culture of target cells and macrophages for 4 hours at 37 °C. Macrophages were identified with APC-labeled anti-F4/80 (Biolegend, Cat. # 123116), and flow cytometry (BD FACSCanto II, San Jose, CA) was performed. Phagocytosis was calculated as the percentage of CFSE^+F4/80^+ cells (Q2) among CFSE^+ cells (Q2+Q3): phagocytosis (%) = [Q2 / (Q2+ Q3)] x100 %.

B16F10 cells = assay: Tumor challenge: B16F10 tumors in C57BL/6 mice; format: in vivo; settings: B16F10 in C57BL/6 mice, anti-CD3 antibody 200 µg/mouse, QP5038 25 mg/kg daily
Protocol: C57BL/6 mice were obtained from Shanghai Slaccas Laboratory Animal Co., Ltd.. Male mice were implanted subcutaneously with 1 x 10^^6 B16F10 cells resuspended in 100μL of DMEM on Day 0. Anti-PD-1 (Clone RMP1-14, BioXCell, Cat. # BE0146) or mouse IgG2a isotype control (Clone 2A3, BioXCell, Cat. # BE0089) was dosed at 80 µg per mouse intraperitoneally starting on day 12 after tumor implantation, followed by a once-a-week regimen. QPCTL inhibitor was intraperitoneally administered at 25 mg/kg once a day. Tumors were measured daily, and mice were sacrificed 24 days after tumor challenge. Tumor volumes were measured in two dimensions (length and width) and the volume was calculated using the formula, tumor size (mm^3) = (length × width^2) × 0.5.
Briefly, male mice were implanted subcutaneously with 5 x 10^5 B16F10 cells resuspended in 100 μL of DMEM on Day 0. Anti-PD-1 antibody or mouse IgG2a isotype control was dosed at 80 µg per mouse intraperitoneally starting on day 6 after tumor implantation, followed by a once-a-week regimen. QPCTL inhibitors was intraperitoneally administered at 25 mg/kg once a day since day 6. Tumors were measured every three days, and mice were sacrificed on day 15. […]
Tumor challenge with T cell depletion. […] Animal weights and tumor volumes were measured twice weekly throughout the study. […] Data were acquired on flow cytometry analyzer and analyzed using Flowjo software.

BMDM cells = assay: Cell viability and phagocytosis ability of BMDM; format: cell-based, mouse

Cn1cncc1C1CCN(c2c(C#N)cccc2-c2ccc(F)nc2)CC1 [QP5038]
inhibitory effect of senescent cells on macrophage-mediated phagocytosis of apoptotic cells (senescent cells): could block the inhibitory effect
phagocytosis of Raji cells (Raji cells; 10 μM inhibitor 48 h, synergized with rituximab, mouse macrophages): significantly boosted
flow cytometry quadrant Q1 (Raji cells; 48 h, 10 µM): 26.4
flow cytometry quadrant Q2 (CFSE+F4/80+ cells) (Raji cells; 48 h, 10 µM): 2.74
flow cytometry quadrant Q3 (Raji cells; 48 h, 10 µM): 70.1
flow cytometry quadrant Q4 (Raji cells; 48 h, 10 µM): 0.70
enhancement of anti-PD-1 antibody-mediated tumor inhibition under T cell depletion (B16F10 cells): blocked the enhancement
cell viability of macrophages (BMDM cells; Fig. S8a): did not attenuate
phagocytotic ability of macrophages (BMDM cells; apoptotic Jurkat cells, Fig. S8b): did not attenuate

From paper PMC10721786, “Development of a potent benzonitrile-based inhibitor of glutaminyl-peptide cyclotransferase-like protein (QPCTL) with antitumor efficacy” (Signal Transduction and Targeted Therapy, 2023)
